The values that follow are results of earlier work, collected in patent US4337247A, “Tetrapeptidesemicarbazide derivatives and their production and use” (Takeda Chemical Industries, Ltd., priority 1979, dated 1982).

For this data set the following is noted: for morphinomimetic activity: direct intracerebral administration; for analgesic effect: intravenous route.

As for H-Tyr-Gly-Gly-Phe-Leu-OH, the morphinomimetic activity entry is listed as “show morphinomimetic activity” and the analgesic effect result is on record as “do not produce analgesic effects”.
As to “H-Tyr-Gly-Gly-Phe-Met-OH (H-YGGFM-OH) [enkephalin, pentapeptide isolated from the pig brain]”, the morphinomimetic activity result is “show morphinomimetic activity” and the analgesic effect result was “do not produce analgesic effects”.
As to “β-endorphine (YGGFMTSEKSQTPLVTLFKNAIIKNAYKKGE; Beta-endorphin; UniProt P01189 237-267, looked up) [polypeptide consisting of 31 amino acids, considered to be derived from the carboxy-terminal of β-lipotrophine]”, the analgesic effect entry is “displays an overt analgesic action”.
